From US20230348415A1, “BISPECIFIC ANTAGONISTS OF RETINOL-BINDING PROTEIN 4 THAT STABILIZE TRANSTHYRETIN TETRAMERS, THEIR PREPARATION, AND USE IN THE TREATMENT OF COMMON AGE-RELATED COMORBIDITIES” (The Trustees of Columbia University in the City of New York, priority 2020, published 2023)
Where two headings read alike, the source gives them in different places.

Assays:
[1] = molecular target: TTR (Homo sapiens (Human), UniProt P02766); assay: biochemical; assay type: binding; settings: FITC-coupled TTR FP probe; read-out: TTR FP IC50
Description: Compound binding to TTR was assessed in the fluorescence polarization assay. […] Each well contained 200 nM TTR and 100 nM FITC-diclofenac in the FP buffer (10 mM Tris-HCl pH 7.5, 150 mM NaCl, 0.01% CHAPS, 0.01% Prionex) along with test compounds. Nonspecific binding was determined in the presence of 500 μM unlabeled diclofenac (Sigma-Aldrich). Reactions with test compounds were incubated overnight at 4° C. and FP was measured on SpectramaxM5e plate reader (Molecular Devices).

[2] = molecular target: RBP4 (Homo sapiens (Human), UniProt P02753); assay: RBP4 SPA binding assay (displacement of 3H-retinol)
[3] = molecular target: RBP4-TTR interaction (Homo sapiens (Human), UniProt P02753); assay: HTRF RBP4-TTR interaction assay; assay type: biochemical
Description: HTRF Cryptate labeling kit from CisBio (Cisbio, cat #62EUSPEA, Bedfored, MA) was used to label TTR with Eu^3+ Cryptate. The assay was performed in a final assay volume of 16 μl in the buffer that contained 10 mM Tris-HCl pH 7.5, 1 mM DTT, 0.05% NP-40, 0.05% Prionex, 6% glycerol, and 400 mM KF. […] All of the reactions were performed under dim red light in the dark. The plates were read in the SpectraMax M5e Multimode Plate Reader (Molecular Devices, Sunnyvale, CA) after the overnight incubation at 4° C. […] The HTRF signal was expressed as the ratio of fluorescence intensity: Flu668/Flu620×10,000.

[4] = 1 μM retinol, read-out: RBP4-TTR HTRF IC50
[5] = fixed 10 nM 3H-retinol, read-out: RBP4 SPA IC50

IC50 [1] [nM]	IC50 [2] [nM]	IC50 [3, 4] [nM]	IC50 [2, 5] [nM]	Compound	IC50 [3] [nM]
8800	> 3000			Cc1cc(C(=O)O)nc(N2CCC(Oc3ccccc3C(F)(F)F)C2)n1 (racemic) [(±)-27, (±)-6-Methyl-2-(3-(2-(trifluoromethyl)phenoxy)pyrrolidin-1-yl)pyrimidine-4-carboxylic Acid]	
1100	480			Cc1cc(C(=O)O)nc(N2CCCC(COc3ccccc3C(F)(F)F)C2)n1 (racemic) [(±)-62, (±)-6-Methyl-2-(3-((2-(trifluoromethyl)phenoxy)methyl)piperidin-1-yl)pyrimidine-4-carboxylic Acid]	15000
1600	260			Cc1cc(C(=O)O)nc(N2CCC3(CCN(c4ccccc4C(F)(F)F)C3)C2)n1 (racemic) [(±)-67, (±)-6-Methyl-2-(7-(2-(trifluoromethyl)phenyl)-2,7-diazaspiro[4.4]nonan-2-yl)pyrimidine-4-carboxylic Acid]	
3500		7500	900	Cc1cc(C(=O)O)nc(N2CCC(CNc3ccccc3C(F)(F)F)C2)n1 (racemic) [(±)-76, (±)-6-Methyl-2-(3-(((2-(trifluoromethyl)phenyl)amino)methyl)pyrrolidin-1-yl)pyrimidine-4-carboxylic Acid]	
13000	> 3000			Cc1cc(C(=O)O)nc(N2CCC(OCc3ccccc3C(F)(F)F)C2)n1 (racemic) [(±)-80, (±)-6-Methyl-2-(3-((2-(trifluoromethyl)benzyl)oxy)pyrrolidin-1-yl)pyrimidine-4-carboxylic Acid]	
7400		540	130	Cc1cc(C(=O)O)nc(N2CCC(COc3ccccc3C(F)(F)F)C2)c1 (racemic) [(±)-95, (±)-4-Methyl-6-(3-((2-(trifluoromethyl)phenoxy)methyl)pyrrolidin-1-yl)picolinic Acid]	
1880	2350			O=C(O)c1ccc(F)c(N2CCC(COc3ccccc3C(F)(F)F)C2)c1 (racemic) [(±)-98, (±)-4-Fluoro-3-(3-((2-(trifluoromethyl)phenoxy)methyl)pyrrolidin-1-yl)benzoic Acid]	
4200		700	81	Cc1cc(C(=O)NS(C)(=O)=O)nc(N2CCC(COc3ccccc3C(F)(F)F)C2)n1 (racemic) [(±)-99, (±)-6-Methyl-N-(methylsulfonyl)-2-(3-((2-(trifluoromethyl)phenoxy)methyl)pyrrolidin-1-yl)pyrimidine-4-carboxamide]	
> 30000		> 30000	89	CNC(=O)c1cc(C)nc(N2CCC(COc3ccccc3C(F)(F)F)C2)n1 (racemic) [(±)-101, (±)-N,6-dimethyl-2-(3-((2-(trifluoromethyl)phenoxy)methyl)pyrrolidin-1-yl)pyrimidine-4-carboxamide]	
10500		1300	230	Cc1cc(C(=O)O)nc(N2CCC(CSc3ccccc3C(F)(F)F)C2)n1 (racemic) [Compound (±)-71, (±)-6-Methyl-2-(3-(((2-(trifluoromethyl)phenyl)thio)methyl)pyrrolidin-1-yl)pyrimidine-4-carboxylic Acid]	
> 30000		450	130	Cc1cc(C(=O)O)nc(N2CCC(COc3ccccc3C(C)(C)C)C2)n1 (racemic) [Compound (±)-83, (±)-2-(3-((2-(Tert-butyl)phenoxy)methyl)pyrrolidin-1-yl)-6-methylpyrimidine-4-carboxylic Acid]	
> 30000		540	160	Cc1cc(C(=O)O)nc(N2CCC(COc3ccccc3C3CCCC3)C2)n1 (racemic) [Compound (±)-84, (±)-2-(3-((2-Cyclopentylphenoxy)methyl)pyrrolidin-1-yl)-6-methylpyrimidine-4-carboxylic Acid]	
> 30000	210			Cc1cc(C(=O)O)nc(N2CCC(COc3ccccc3C3CCCCC3)C2)n1 (racemic) [Compound (±)-85, (±)-2-(3-((2-Cyclohexylphenoxy)methyl)pyrrolidin-1-yl)-6-methylpyrimidine-4-carboxylic Acid]	
> 30000		3700	520	Cc1cc(C(=O)O)nc(N2CCC(COc3cnccc3C(F)(F)F)C2)n1 (racemic) [Compound (±)-92, (±)-6-Methyl-2-(3-(((4-(trifluoromethyl)pyridin-3-yl)oxy)methyl)pyrrolidin-1-yl)pyrimidine-4-carboxylic Acid]	
> 30000	660			Cc1cc(C(=O)O)nc(N2CCC(COc3cccnc3C(F)(F)F)C2)n1 (racemic) [Compound (±)-93, (±)-6-Methyl-2-(3-(((2-(trifluoromethyl)pyridin-3-yl)oxy)methyl)pyrrolidin-1-yl)pyrimidine-4-carboxylic Acid]	
11000	1670			O=C(O)c1ccnc(N2CCC(COc3ccccc3C(F)(F)F)C2)n1 (racemic) [Compound (±)-94, (±)-2-(3-((2-(Trifluoromethyl)phenoxy)methyl)pyrrolidin-1-yl)pyrimidine-4-carboxylic Acid]	
25000	> 3000			O=C(O)c1cccc(N2CCC(COc3ccccc3C(F)(F)F)C2)n1 (racemic) [Compound (±)-96, (±)-6-(3-((2-(Trifluoromethyl)phenoxy)methyl)pyrrolidin-1-yl)picolinic acid]	
4900		1300	680	O=C(O)c1cccnc1N1CCC(COc2ccccc2C(F)(F)F)C1 (racemic) [Compound (±)-97, (±)-2-(3-((2-(Trifluoromethyl)phenoxy)methyl)pyrrolidin-1-yl)nicotinic Acid]	
> 30000		2300	62	Cc1cc(C(N)=O)nc(N2CCC(COc3ccccc3C(F)(F)F)C2)n1 (racemic) [Compound (±)-100, (±)-6-Methyl-2-(3-((2-(trifluoromethyl)phenoxy)methyl)pyrrolidin-1-yl)pyrimidine-4-carboxamide]	
4100		19000	62	Cc1cc(C(=O)NC2CC2)nc(N2CCC(COc3ccccc3C(F)(F)F)C2)n1 (racemic) [Compound (±)-102, (±)-N-Cyclopropyl-6-methyl-2-(3-((2-(trifluoromethyl)phenoxy)methyl)pyrrolidin-1-yl)pyrimidine-4-carboxamide]	

Compound	IC50 [1] [nM]	IC50 [2] [nM]	IC50 [3, 4] [nM]	IC50 [2, 5] [nM]	IC50 [3] [nM]
Cc1cc(-c2nn[nH]n2)nc(N2CCC(COc3ccccc3C(F)(F)F)C2)n1 (racemic) [(±)-103, (±)-4-Methyl-6-(2H-tetrazol-5-yl)-2-(3-((2-(trifluoromethyl)phenoxy)methyl)pyrrolidin-1-yl)pyrimidine]	1260	86			1600
Cc1cc(C(=O)O)nc(N2CCC(COc3cccc(Cl)c3C(F)(F)F)C2)n1 (racemic) [Compound (±)-86, (k)-2-(3-((3-Chloro-2-(trifluoromethyl)phenoxy)methyl)pyrrolidin-1-yl)-6-methylpyrimidine-4-carboxylic Acid]	3900			180	
Cc1cc(C(=O)O)nc(N2CCC(COc3ccc(F)cc3C(F)(F)F)C2)n1 (racemic) [Compound (±)-87, (W)-2-(3-((4-Fluoro-2-(trifluoromethyl)phenoxy)methyl)pyrrolidin-1-yl)-6-methylpyrimidine-4-carboxylic Acid]	3900		870	240	
Cc1cc(C(=O)O)nc(N2CCC(COc3cc(F)ccc3C(F)(F)F)C2)n1 (racemic) [Compound (±)-88, (±)-2-(3-((5-Fluoro-2-(trifluoromethyl)phenoxy)methyl)pyrrolidin-1-yl)-6-methylpyrimidine-4-carboxylic Acid]	13000		300	130	
Cc1cc(C(=O)O)nc(N2CCC(COc3c(F)cccc3C(F)(F)F)C2)n1 (racemic) [Compound (±)-89, (±)-2-(3-((2-Fluoro-6-(trifluoromethyl)phenoxy)methyl)pyrrolidin-1-yl)-6-methylpyrimidine-4-carboxylic Acid]	1900		1000	300	
COc1ccc(C(F)(F)F)c(OCC2CCN(c3nc(C)cc(C(=O)O)n3)C2)c1 (racemic) [Compound (±)-90, (k)-2-(3-((5-Methoxy-2-(trifluoromethyl)phenoxy)methyl)pyrrolidin-1-yl)-6-methylpyrimidine-4-carboxylic Acid]	> 30000			> 3000	
Cc1cc(C(=O)O)nc(N2CCC(COc3cc(C(F)(F)F)cc(C(F)(F)F)c3)C2)n1 (racemic) [Compound (±)-91, (k)-2-(3-((3,5-Bis(trifluoromethyl)phenoxy)methyl)pyrrolidin-1-yl)-6-methylpyrimidine-4-carboxylic Acid]	> 30000			1600	
Cc1cc(C(=O)O)nc(N2CC(Oc3ccccc3C(F)(F)F)C2)n1 [Compound 32, 6-Methyl-2-(3-(2-(trifluoromethyl)phenoxy)azetidin-1-yl)pyrimidine-4-carboxylic Acid]	13500				
